The subject of experiment [1] is Human immunodeficiency virus 1. Kind of experiment: Antiviral activity against wild type HIV1 VSVG infected in 293ET cells assessed as inhibition of viral replication by luciferase reporter gene assay. In kind it is functional, organism-based. Background: Reporter assays use an easily measured gene product as a stand-in for the process of interest.
Experiment [2] deals with Human immunodeficiency virus 1. Nature of the experiment: Antiviral activity against HIV1 VSVG harboring reverse transcriptase K103N mutant infected in 293ET cells assessed as inhibition of viral replication by luciferase reporter gene assay. In kind it is functional, organism-based.
In experiment [3] the test system is Human immunodeficiency virus 1. Nature of the experiment: Selectivity ratio of IC50 for HIV1 VSVG harboring reverse transcriptase K103N mutant to IC50 for wild type HIV1 VSVG. The experiment is classed as functional.
The test system of experiment [4] is Human immunodeficiency virus 1. Nature of the experiment: Antiviral activity against HIV1 VSVG harboring reverse transcriptase Y181C mutant infected in 293ET cellsassessed as inhibition of viral replication by luciferase reporter gene assay. In kind it is functional, organism-based.
For experiment [5], the system named is Human immunodeficiency virus 1. Kind of experiment: Selectivity ratio of IC50 for HIV1 VSVG harboring reverse transcriptase Y181C mutant to IC50 for wild type HIV1 VSVG. In kind it is functional.
Setting [6] is: Human immunodeficiency virus 1, VSVG, 293ET, read-out: IC50.

Data on 25 compounds can be found in ChEMBL document CHEMBL3132804, “Synthesis and biological evaluation of novel quinoxalinone-based HIV-1 reverse transcriptase inhibitors” (Medchemcomm, 2014).

A word on the IC50: it is the concentration needed to halve the response being measured.

Molecules are shown by their SMILES.

As to `CC1C(=O)Nc2ccc(Cl)cc2N1S(=O)(=O)c1cc(Cl)sc1CNc1nccs1` (stereo unspecified), the IC50 result in experiment [1] (293et) is “Not Active”.
For `CC(C)=CCOC(=O)c1sccc1S(=O)(=O)N1c2cc(Cl)ccc2NC(=O)C1C` (stereo unspecified), the IC50 in experiment [2] is > 10 µM; in experiment [4] it was > 10 µM; in experiment [1] (setting [6]), 0.77 µM. The “Ratio IC50” value in experiment [3] and in experiment [5] was >13 throughout.
Regarding `COC(=O)c1sc(I)cc1S(=O)(=O)N1c2cc(Cl)ccc2NC(=O)C1C` (stereo unspecified), the IC50 is 6.68 µM in experiment [2], > 10 µM in experiment [4] and 0.075 µM in experiment [1] (setting [6]). Further, the “Ratio IC50” value in experiment [3] is 89; in experiment [5] it was >133.
With `CON(C)C(=O)c1sccc1S(=O)(=O)N1c2cc(Cl)ccc2NC(=O)C1C` (stereo unspecified), in experiment [1] (293et), the IC50 entry is reported as “Not Active”.
As to `Cc1ccnc2c1NC(=O)c1cccnc1N2C1CC1` [NEVIRAPINE], the IC50 was 1.29 µM in experiment [2], > 10 µM in experiment [4] and 0.04 µM in experiment [1] (setting [6]). The “Ratio IC50” value in experiment [3] is reported as 32; in experiment [5], >250.
With `COC(=O)c1sc(-c2cccc(OC)c2)cc1S(=O)(=O)N1c2cc(Cl)ccc2NC(=O)C1C` (stereo unspecified), the IC50 in experiment [1] (setting [6]) amounted to 9.68 µM.
Same read-out and setting: with `CC(C)OC(=O)c1sc(Cl)cc1S(=O)(=O)N1c2cc(Cl)ccc2NC(=O)C1C` (stereo unspecified) the figure was 5.55 µM.
As for `CC1C(=O)Nc2ccc(Cl)cc2N1S(=O)(=O)c1ccsc1CO` (stereo unspecified), the IC50 entry in experiment [1] (293et) is “Not Active”.
Same read-out and setting: with `CC1C(=O)Nc2ccc(Cl)cc2N1S(=O)(=O)c1cc(Cl)sc1CO` (stereo unspecified) the entry was “Not Active”.
Consider `CC(C)OC(=O)c1sccc1S(=O)(=O)N1c2cc(Cl)ccc2NC(=O)C1C` (stereo unspecified), for which the IC50 in experiment [2] is > 10 µM; in experiment [4], > 10 µM; in experiment [1] (setting [6]), 1.09 µM. The “Ratio IC50” value in experiment [3] and in experiment [5] was >9 throughout.
As for `CC1C(=O)Nc2ccc(Cl)cc2N1S(=O)(=O)c1ccsc1C=O` (stereo unspecified), in experiment [1] (293et), the IC50 result was “Not Active”.
`COC(=O)c1sccc1S(=O)(=O)N1c2cc(Cl)ccc2NC(=O)C1C` (stereo unspecified): the results for the IC50 in experiment [2] and in experiment [4] were 2.6 µM and > 10 µM, respectively. Further, the “Ratio IC50” value was 13 in experiment [3] and >50 in experiment [5].
Turning to `CC1C(=O)Nc2ccc(Cl)cc2N1S(=O)(=O)c1cc(Cl)sc1C=O` (stereo unspecified), in experiment [1] (293et), the IC50 result is on record as “Not Active”.
As to `COC(=O)c1sc(Br)cc1S(=O)(=O)N1c2cc(Cl)ccc2NC(=O)C1C` (stereo unspecified), the IC50 was 6.39 µM in experiment [2], > 10 µM in experiment [4] and 0.13 µM in experiment [1] (setting [6]). Further, the “Ratio IC50” value in experiment [3] was 49; in experiment [5] it was >77.
With `CC1C(=O)Nc2ccc(Cl)cc2N1S(=O)(=O)c1cc(Cl)sc1C(=O)O` (stereo unspecified), the IC50 result in experiment [1] (293et) is reported as “Not Active”.
Regarding `COC(=O)c1sc(Cl)cc1S(=O)(=O)N1c2cc(Cl)ccc2NC(=O)C1C` (stereo unspecified), the IC50 is 7.94 µM in experiment [2], > 10 µM in experiment [4] and 0.07 µM in experiment [1] (setting [6]). Further, the “Ratio IC50” value in experiment [3] was 113; in experiment [5] it was >143.
For `COC(=O)c1sc(-c2ccco2)cc1S(=O)(=O)N1c2cc(Cl)ccc2NC(=O)C1C` (stereo unspecified) the same measures were > 10 µM, > 10 µM, 1.97 µM, >5 and >5.
With `COC(=O)c1sc(-c2ccccc2)cc1S(=O)(=O)N1c2cc(Cl)ccc2NC(=O)C1C` (stereo unspecified), the IC50 in experiment [1] (setting [6]) was 9.05 µM.
Regarding `CC1C(=O)Nc2ccc(Cl)cc2N1S(=O)(=O)c1ccsc1/C=N\c1nccs1` (stereo unspecified), the IC50 entry in experiment [1] (293et) is listed as “Not Active”.
In the case of `CC1C(=O)Nc2ccc(Cl)cc2N1S(=O)(=O)c1cc(Cl)sc1-c1cnco1` (stereo unspecified), the IC50 in experiment [1] (setting [6]) worked out at 4.44 µM.
With `CC1C(=O)Nc2ccc(Cl)cc2N1S(=O)(=O)c1ccsc1CNc1nccs1` (stereo unspecified), the IC50 entry in experiment [1] (293et) is recorded as “Not Active”.
In the case of `COC(=O)c1sc(-c2cccs2)cc1S(=O)(=O)N1c2cc(Cl)ccc2NC(=O)C1C` (stereo unspecified), the IC50 in experiment [1] (setting [6]) stood at 6.53 µM.
For `CC(C)NC(=O)c1sccc1S(=O)(=O)N1c2cc(Cl)ccc2NC(=O)C1C` (stereo unspecified), in experiment [1] (293et), the IC50 result is recorded as “Not Active”.
As to `CC1C(=O)Nc2ccc(Cl)cc2N1S(=O)(=O)c1ccsc1C(=O)O` (stereo unspecified), the IC50 entry in experiment [1] (293et) is given as “Not Active”.
The same measure, in the same setting: the result for `CC1C(=O)Nc2ccc(Cl)cc2N1S(=O)(=O)c1cc(Cl)sc1/C=N\c1nccs1` (stereo unspecified) reads “Not Active”.
